Test results reported in ChEMBL document CHEMBL1671667, “Impact of low-level resistance to fluoroquinolones due to qnrA1 and qnrS1 genes or a gyrA mutation on ciprofloxacin bactericidal activity in a murine model of Escherichia coli urinary tract infection” (Antimicrob Agents Chemother, 2009).
Converted amounts (≈) assume the structure as drawn.

Assays:
Klebsiella pneumoniae = experiment: Antimicrobial activity against qnr-negative Klebsiella pneumoniae C2 harboring qnrA1 gene
in vivo = settings: CBA, mouse, sc, 2.5 mg/kg
Description: Cmax in immunocompetent CBA mouse infected with Escherichia coli at 2.5 mg/kg, sc administered as single dose after 15 mins by liquid chromatography

O=C(O)c1cn(C2CC2)c2cc(N3CCNCC3)c(F)cc2c1=O [CIPROFLOXACIN]
MIC (Klebsiella pneumoniae): 4 µg/mL (≈ 12.1 µM)
Cmax at 0.25 h (in vivo): 1100 ng/mL
